Converted amounts (≈) assume the structure as drawn. “And” between values parts separate entries of the source, which are not always exact repeats. Equal entries are not always repeated. Where two headings read alike, the source gives them in different places.

This is an account of results in US20110223131A1, “ANTIVIRAL COMPOUNDS” (Gilead Sciences, Inc., priority 2010, published 2011).

Series [1] relates to HIV-IIIb. The conditions noted are these: MT-2 cells; as reported in WO 2010/011959; cited from earlier work.
The nature of series [2]: Oral bioavailability from crystalline suspension in dog (plasma PK, LC/MS/MS). The conditions noted are these: for bioavailability: read-out: F (oral bioavailability). In kind it is in vivo, beagle dogs. The procedure:
Oral Bioavailability-Determination of Oral Bioavailability of Integrase Inhibitors from Crystalline Suspension in Dog The in-life phase of these studies was carried out at SRI, Menlo Park, Calif. Both Compound (Ia) and Comparator Compound were formulated in 0.5% HPMC […], 0.2% Tween 20, 0.9% benzyl alcohol, and 98.4% water. Both were at 2.00 mg/mL for oral dosing. Each dosing group consisted of 3 male, beagle dogs. At dosing, the animals weighed an average of 10.9 kgs for Compound (Ia) and 10.5 kgs for Comparator Compound. The animals were fasted overnight prior to dose administration and up to 4 hr after dosing. The dogs were pre-treated with pentagastrin at 30 minutes prior to dosing by IM injection. The Compound (Ia) suspension was administered by oral gavage at 1.5 mL/kg to deliver a total dose of 3 mg/kg, while the Comparator Compound suspension was administered by oral gavage at 2 mL/kg for a dose of 4 mg/kg. Serial venous blood samples (approximately 0.8-1.0 mL each) were taken at specified time points (range t=0 to t=24 hr) after dosing from each animal. The blood samples were collected into VacutainerTM tubes containing EDTA-K3 as the anti-coagulant and were immediately placed on wet ice pending centrifugation for plasma. Dosing solutions were analyzed using un-used portions of the dosing solutions, and aliquots of approximately 1 mL of each dosing solution were saved. The concentration of compound in the dosing solution was measured with an HPLC-UV method. Comparator Compound (nominal dose of 4 mg/kg) was dosed at 9387 nmoles/kg, while Compound (Ia) (nominal dose of 3 mg/kg) was dosed at 6563-6566 nmoles/kg. An LC/MS/MS method was used to measure the concentration of test compounds in plasma. Non-compartmental pharmacokinetic analysis was performed on the plasma concentration-time data. The bioanalytical method consisted of treating 100 μL of each plasma sample with 200 μL of acetonitrile (ACN) and 200 μL acetonitrile (ACN) containing internal standard. After protein precipitation and centrifugation, 100 μL of the supernatant was transferred to a clean 96-well plate and mixed with 100 μL of water. An aliquot of 10 μL of the above solution was injected onto an API-4000 triple quadrupole LC/MS/MS system. A Hypersil Gold (#25005-053030, Thermo Electron Corporation) column was used. Mobile phase A contained water with 0.1% formic acid and 1% IPA. Mobile phase B contained acetonitrile with 0.1% formic acid and 1% IPA.

Series [3] in a line: Aqueous solubility in buffers, HPLC-UV. The series is classed as physicochemical. The conditions noted are these: aqueous buffer, thermodynamic from solid, 24 to 48 hours. The procedure:
Excess solid material was added to aqueous buffers at pH 2 and pH 7 in glass vials to form suspensions. The suspension was stirred on a stirrer plate with a magnetic stirrer bar at room temperature for periods of 24 to 48 hours. The suspension was filtered through a 0.22 micron PVDF syringe filters. The clear filtrate was diluted in acetonitrile and analyzed by HPLC-UV against an external standard for the compound concentration.

The test system of series [4] is HIV-IIIb. In words: Antiviral assay in MT-2 / MT-4 cells infected with HIV-IIIb (CellTiter-Glo readout). The series is classed as cell-based. Particulars: Human immunodeficiency virus 1, MT4, 120 h, 5 days, cell line (MT-2 or MT-4) not printed in Table 1. The procedure: For the antiviral assay utilizing MT-2 cells, 50 μL of 2× test concentration of 5-fold serially diluted compound in culture medium with 10% FBS was added to each well of a 96-well plate (9 concentrations) in triplicate. MT-2 cells were infected with HIV-IIIb at a multiplicity of infection (m.o.i) of 0.01 for 3 hours. Fifty microliters of infected cell suspension in culture medium with 10% FBS (˜1.5×10^4 cells) was then added to each well containing 50 μL of diluted compound. The plates were then incubated at 37° C. for 5 days. For the antiviral assay utilizing MT-4 cells, 20 μL of 2× test concentration of 5-fold serially diluted compound in culture medium with 10% FBS was added to each well of a 384-well plate (7 concentrations) in triplicate. MT-4 cells were next mixed with HIV-IIIb at an m.o.i. of 0.1 and 20 μL of virus/cell mixture (˜2000 cells) was immediately added to each well containing 20 μL of diluted compound. The plates were then incubated at 37° C. for 5 days. After 5 days of incubation, 100 μL of CellTiter-Glo™ Reagent (catalog #G7571, Promega Biosciences, Inc., Madison, Wis.) was added to each well containing MT-2 cells and 40 μl to each well containing MT-4 cells. Cell lysis was carried out by incubating at room temperature for 10 min and then chemiluminescence was read.

Series [5] is described as follows: Cytotoxicity (CC50) in MT-4 cells. The series is classed as cell-based. The conditions noted are these: human.
Series [6] can be described thus: Cytotoxicity (CC50) in MT-2 cells. The series is classed as cell-based. The conditions noted are these: human.
The mark [7] stands for this setting: PO 4 mg/kg suspension, dog plasma, individual dogs, 4 mg/kg.
[8] abbreviates: male, beagle, dog, plasma, po, 4 mg/kg, PO 4 mg/kg suspension, dog plasma, individual dogs.
[9] abbreviates: PO 3 mg/kg suspension, dog plasma, individual dogs, 3 mg/kg.
The mark [10] stands for this setting: male, beagle, dog, plasma, po, 3 mg/kg, PO 3 mg/kg suspension, dog plasma, individual dogs.
Where [11] appears, read: male, beagle, dog, plasma, po, 3 mg/kg, PO 3 mg/kg suspension, dog plasma, mean n = 3.

Turning to `CNC(=O)c1c(O)c2ncc(Cc3ccc(F)cc3)c3c2n(c1=O)C[C@H](C(=O)NC)O3` [Comparator Compound, reference compound], the EC50 (usually the concentration needed to bring the measured effect to its halfway point) with HIV-IIIb [1] was 0.0068 µM. Moreover, the AUClast in series [2] (setting [7]) was 0.385 µM·h and 0.0898 µM·h and 0.0552 µM·h. Also, the Cmax (in general, the maximum level reached in the sampled fluid or tissue) in series [2] (setting [7]) is 58.5 nM and 16.3 nM and 11.3 nM; in series [2] (male, beagle, dog, plasma, po, 4 mg/kg, PO 4 mg/kg suspension, dog plasma, mean n = 3), 28.7 ± 25.9 nM. The Tmax (usually the time from dosing to the highest level) is 2.00 h in series [2] (setting [7]); 4 h in series [2] (male, beagle, dog, plasma, po, 4 mg/kg, PO 4 mg/kg suspension, dog plasma, individual dogs, read-out: Tmax); 2.67 h in series [2] (male, beagle, dog, plasma, po, 4 mg/kg, PO 4 mg/kg suspension, dog plasma, mean n = 3, read-out: Tmax). Moreover, the “F (oral bioavailability)” value in series [2] (PO 4 mg/kg suspension, dog, individual dogs, 4 mg/kg) was 0.5% and 0.1% (2×). Moreover, the CL is 0.13 L/h/kg and 0.14 L/h/kg and 0.19 L/h/kg in series [2] (listed in table of PO 4 mg/kg suspension, dog plasma, individual dogs, 4 mg/kg); 0.15 L/h/kg in series [2] (listed in table of PO 4 mg/kg suspension, dog plasma, mean n = 3). Moreover, the AUC(0-inf) (usually total exposure, with the tail of the curve extrapolated) in series [2] (male, beagle, dog, plasma, po, 4 mg/kg, PO 4 mg/kg suspension, dog plasma, Mean column (only one dog calculable)) is 0.427 µM·h; in series [2] (setting [8]), 0.427 µM·h. Also, the half-life (in general, the time in which the quantity being followed falls by half) in series [2] (setting [8]) is 2.97 h. Besides, in series [2] (male, beagle, dog, plasma, po, 4 mg/kg, PO 4 mg/kg suspension, dog plasma, mean n = 3, read-out: AUClast (AUC0-t)), the AUC(0-t) came out at 0.177 ± 0.181 µM·h. The bioavailability – broadly, the share of a dose that reaches the circulation, judged against a reference dose that is usually intravenous – in series [2] (male, beagle, dog, plasma, po, 4 mg/kg, PO 4 mg/kg suspension, pentagastrin pretreated dogs, mean n = 3) was 0.2%. Further, the solubility (in general, the concentration that dissolves in the medium under given conditions) in series [3] (pH 2.2, room temperature) was 1 µg/mL (≈ 2.35 µM); in series [3] (pH 7.3, room temperature), 1 µg/mL (≈ 2.35 µM).
As to `CNC(=O)c1c(O)c2ncc(Cc3ccc(F)cc3)c3c2n(c1=O)C[C@](C)(c1nnc(C)o1)O3` [Compound (Ia)], the EC50 in the series on HIV-IIIb [4] was 0.0034 µM. The AUCinf in series [2] (setting [9]) is 14.413 µM·h and 21.913 µM·h. Besides, the AUClast in series [2] (setting [9]) was 14.199 µM·h and 21.762 µM·h. Besides, the Cmax was 2500 nM and 4240 nM in series [2] (setting [9]); 3160 nM in series [2] (setting [10]); 3300 ± 878 nM in series [2] (setting [11]). Moreover, the Tmax was 2.00 h in series [2] (setting [9]); 1 h in series [2] (male, beagle, dog, plasma, po, 3 mg/kg, PO 3 mg/kg suspension, dog plasma, individual dogs, read-out: Tmax); about 1.33 h in series [2] (male, beagle, dog, plasma, po, 3 mg/kg, PO 3 mg/kg suspension, dog plasma, mean n = 3, read-out: Tmax). In addition, the t1/2 in series [2] (setting [9]) was 4.88 h and 3.64 h. For the same compound, the “F (oral bioavailability)” value in series [2] (PO 3 mg/kg suspension, dog, individual dogs, 3 mg/kg) is 35.0% and 53.6%; in series [2] (PO 3 mg/kg suspension, pentagastrin pretreated dogs, mean n = 3), 45.2%. The CL was 0.17 L/hr/kg (2×) and 0.15 L/hr/kg in series [2] (listed in table of PO 3 mg/kg suspension, dog plasma, individual dogs, 3 mg/kg); 0.16 L/h/kg in series [2] (listed in table of PO 3 mg/kg suspension, dog plasma, mean n = 3). Further, the AUC(0-inf) in series [2] (setting [10]) came to 19.3 µM·h; in series [2] (setting [11]) it was 18.6 µM·h. Also, the results for the half-life in series [2] (setting [10]) and in series [2] (setting [11]) were 4.16 h and 4.22 h, respectively. Also, the AUC(0-t) in series [2] (male, beagle, dog, plasma, po, 3 mg/kg, PO 3 mg/kg suspension, dog plasma, individual dogs, read-out: AUClast) came out at 19.1 µM·h; in series [2] (male, beagle, dog, plasma, po, 3 mg/kg, PO 3 mg/kg suspension, dog plasma, mean n = 3, read-out: AUClast), 18.3 µM·h. The bioavailability in series [2] (male, beagle, dog, plasma, po, 3 mg/kg, PO 3 mg/kg suspension, dog, individual dogs) turned out to be 47%; in series [2] (male, beagle, dog, plasma, po, 3 mg/kg, PO 3 mg/kg suspension, pentagastrin pretreated dogs, mean n = 3), 45%. Further, the cytotoxic concentration (CC50) (commonly the concentration giving 50% cytotoxicity) at 5 days in series [5] amounted to 42 µM; in series [6] it was 5.3 µM. Further, the solubility is 29.4 µg/mL (≈ 63.2 µM) in series [3] (pH 2.2, room temperature) and 31.6 µg/mL (≈ 67.9 µM) in series [3] (pH 7.3, room temperature).
